{"source": "patent EP0717990B1", "about": "“COMPOSITION FOR REMEDYING DRUG DEPENDENCE” (TAISHO PHARMACEUTICAL CO. LTD, priority 1993, dated 1995)", "key": {"[1]": {"test_system": "cocaine-dependent monkeys", "assay": "Effect on cocaine-dependent monkeys (drug self-administration)", "assay_type": "in vivo, male cynomolgus monkeys", "conditions": "cocaine intake per day, cocaine-dependent cynomolgus monkeys", "protocol": "[Investigation on an effect on cocaine-dependent monkeys]\nA test was carried out according to the method described in Drug and Alcohol Dependence, 1989, Vol. 24, pp. 135-142.\nA catheter was allowed to indwell chronically in the vein of each monkey and the investigation was carried out by a drug self-administration experimental method in which a definite amount of a liquid drug was automatically poured according to a reinforcement schedule when the animal pushed a lever. When the cocaine intake per day was 20 mg/kg/day or more for 10 consecutive weeks or more, it was judged that the dependence was caused."}, "[2]": {"test_system": "phencyclidine (PCP)-induced abnormal behavior", "assay": "Antagonism against phencyclidine (PCP)-induced abnormal behavior (head weaving)", "conditions": "Rattus norvegicus, read-out: ED50 value (mg/kg)"}, "[3]": {"assay": "Single-administration toxicity test", "set-up": "species or system Wistar strain rats", "conditions": "Wistar, rat, in vivo, oral, observation 14 days, read-out: Approximate LD50", "protocol": "[Single-administration toxicity test]\nKind of animal: Wistar strain rats, male and female, 6 to 7 weeks old (at the time of administration). Number of animals: 5 males and 5 females in each group. Administration route: Oral. Number of groups: male 6 groups, female 6 groups. Administered drug: N,N-di-n-propyl-2-[4-methoxy-3-(2-phenylethoxy)phenyl]ethylamine hydrochloride. Dosage form: a solution in distilled water. Dose: male 312 to 891 mg/kg, female 240 to 685 mg/kg (common ratio […]). Observation time: 14 days."}, "alcohol dependence": {"test_system": "alcohol dependence", "assay": "Effect on alcohol dependence (conditioned place preference in shuttle box)", "assay_type": "in vivo, male Wistar strain rats", "conditions": "rats; for Desire-arising effect for ethanol treatment compartment: 30 minutes before ethanol administration", "protocol": "[Investigation on an effect on alcohol dependence]\nA test was carried out according to the method described in Pharmacology Biochemistry and Behavior, Vol. 35, pp. 485-487 (1990).\nCompound B used according to the present invention was administered in a dose of 0.1 or 1 mg/kg 30 minutes before ethanol administration in each run.\nAn experimental apparatus was a 2-compartments box (width 30 cm, length 60 cm, height 30 cm) made of acrylic plates and divided equally into a white compartment and a black compartment by a guillotine door provided in the middle of the box. In addition, the floor of the box had been made non-slip in the white compartment and slippery in the black compartment, that is, the box used was a so-called shuttle box capable of giving both a visual stimulus of black and white and a tactile stimulus of the floor.\nConditioning was carried out once a day for 6 days. Each rat was treated with ethanol (0.5 or 1 g/kg) or physiological saline and then confined in one of the compartment for 50 minutes. The next day, the rat was subjected to a treatment different from that carried out on the previous day, and then confined in the other compartment for 50 minutes. The above procedure was repeated three times. For minimizing the influence of the difference of the conditioning procedure on the result, a counter balance method was adopted, that is, there were employed the following 4 combinations of the ethanol treatment or the physiological saline treatment and the white or black compartment: • 1) ethanol and white; physiological saline and black on the next day, • 2) physiological saline and black; ethanol and white on the next day, • 3) ethanol and black; physiological saline and white on the next day, and • 4) physiological saline and white; ethanol and black on the next day.\nAs a control group, a group which had been given physiological saline instead of being subjected to ethanol treatment was conditioned in the same manner as above.\nAfter 6 days of the conditioning procedure, each run of measuring the length of stay in each compartment was carried out for 15 minutes. Neither ethanol nor physiological saline was administered to the conditioned rats. In the apparatus, a platform (width 2 cm, length 5 cm) made of a wire net and having a gray color intermediate between white and black was set in the middle of the box, i.e., the compartmenting portion. The length of stay was measured as follows: each rat was placed on the platform, and then a time for which the forefeet and head of the rat were in the black or white compartment was measured as a length of stay in the black or white compartment, respectively, for 15 minutes after the rat got down the platform to become able to come from or go to any of the white and black compartments freely. The desire-arising effect for the drug treatment compartment, i.e., the place preference was determined in terms of a value obtained by subtracting the length of stay in the physiological saline treatment compartment from the length of stay in the drug treatment compartment."}, "5-HT1A": {"biological_target": "T1, 5-HT1A (Homo sapiens, UniProt P08908)", "T1 sequence (P08908 1-422)": "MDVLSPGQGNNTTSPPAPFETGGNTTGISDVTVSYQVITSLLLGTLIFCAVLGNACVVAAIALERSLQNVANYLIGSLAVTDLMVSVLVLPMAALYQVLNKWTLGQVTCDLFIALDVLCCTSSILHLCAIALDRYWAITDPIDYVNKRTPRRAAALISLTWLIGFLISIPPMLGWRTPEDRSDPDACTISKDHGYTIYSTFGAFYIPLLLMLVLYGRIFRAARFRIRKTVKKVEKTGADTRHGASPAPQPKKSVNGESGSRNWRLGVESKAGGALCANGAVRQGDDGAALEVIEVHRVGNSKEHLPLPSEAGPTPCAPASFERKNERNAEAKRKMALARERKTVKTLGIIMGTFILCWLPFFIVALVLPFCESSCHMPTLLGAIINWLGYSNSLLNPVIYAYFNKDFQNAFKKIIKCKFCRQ", "conditions": "result in words; cited from earlier work"}, "D2": {"biological_target": "D2 (Homo sapiens, UniProt P14416)", "sequence (P14416 whole entry)": "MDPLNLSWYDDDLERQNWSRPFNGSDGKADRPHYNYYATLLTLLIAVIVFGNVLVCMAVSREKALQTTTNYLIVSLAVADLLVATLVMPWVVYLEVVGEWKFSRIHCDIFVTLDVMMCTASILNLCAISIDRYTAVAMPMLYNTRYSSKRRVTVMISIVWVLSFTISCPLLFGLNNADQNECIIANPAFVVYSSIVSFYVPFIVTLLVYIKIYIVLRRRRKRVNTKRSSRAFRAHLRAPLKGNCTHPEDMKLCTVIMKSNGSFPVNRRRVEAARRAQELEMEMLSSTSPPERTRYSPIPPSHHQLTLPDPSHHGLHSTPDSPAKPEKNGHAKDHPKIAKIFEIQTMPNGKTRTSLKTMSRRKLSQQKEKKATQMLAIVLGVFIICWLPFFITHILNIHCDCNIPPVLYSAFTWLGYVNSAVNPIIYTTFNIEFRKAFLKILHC", "conditions": "result in words; cited from earlier work"}, "D1": {"biological_target": "D1 (Homo sapiens, UniProt P21728)", "sequence (P21728 whole entry)": "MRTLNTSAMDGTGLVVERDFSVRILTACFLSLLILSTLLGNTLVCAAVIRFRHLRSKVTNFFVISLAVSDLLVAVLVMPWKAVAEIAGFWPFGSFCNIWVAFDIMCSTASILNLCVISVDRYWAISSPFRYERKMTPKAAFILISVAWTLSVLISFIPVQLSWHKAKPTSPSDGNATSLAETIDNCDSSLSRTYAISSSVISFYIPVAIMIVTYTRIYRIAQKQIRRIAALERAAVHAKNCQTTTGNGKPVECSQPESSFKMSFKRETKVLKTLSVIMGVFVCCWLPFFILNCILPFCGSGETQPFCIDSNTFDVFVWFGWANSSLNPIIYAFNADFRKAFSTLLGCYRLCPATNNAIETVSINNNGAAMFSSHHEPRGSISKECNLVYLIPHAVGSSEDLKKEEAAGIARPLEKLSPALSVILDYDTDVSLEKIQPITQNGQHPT", "conditions": "result in words; cited from earlier work"}, "sigma receptor": {"test_system": "sigma receptor", "conditions": "result in words; cited from earlier work"}, "5-HT2": {"biological_target": "5-HT2 (Homo sapiens, UniProt P28223)", "sequence (P28223 whole entry)": "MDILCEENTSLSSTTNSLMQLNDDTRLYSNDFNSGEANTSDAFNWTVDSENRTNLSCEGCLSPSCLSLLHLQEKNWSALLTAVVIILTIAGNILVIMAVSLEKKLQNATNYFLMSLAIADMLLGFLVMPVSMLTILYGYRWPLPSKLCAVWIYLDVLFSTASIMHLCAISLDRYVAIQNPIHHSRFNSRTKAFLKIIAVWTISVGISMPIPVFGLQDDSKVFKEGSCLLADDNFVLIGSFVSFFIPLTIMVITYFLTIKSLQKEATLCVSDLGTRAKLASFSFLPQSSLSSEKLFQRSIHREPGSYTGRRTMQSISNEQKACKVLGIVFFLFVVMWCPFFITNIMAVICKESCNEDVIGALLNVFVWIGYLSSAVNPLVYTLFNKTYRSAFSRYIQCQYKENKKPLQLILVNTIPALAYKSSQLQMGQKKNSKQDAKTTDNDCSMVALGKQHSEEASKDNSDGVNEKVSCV", "conditions": "result in words; cited from earlier work"}, "[4]": {"conditions": "orally administered in a dose of 0.1 mg/kg"}}, "note": "Where two headings read alike, the source gives them in different places.", "data": [{"smiles": "CCCN(CCC)CCc1cc(Cl)ccc1OCCc1ccccc1.O=C(O)C(=O)O", "note": "[A, N,N-di-n-propyl-2-[5-chloro-2-(2-phenylethoxy)phenyl]ethylamine oxalate]", "values": [{"measurement": "Percentage of decrease in cocaine intake (%)", "setting": "[1]; [4]", "result": 62.6, "unit": "%"}, {"measurement": "ED50", "setting": "[2]", "result": 0.3, "unit": "mg/kg"}]}, {"smiles": "CCCN(CCC)CCc1cccc(OC)c1OCCc1ccccc1.Cl", "note": "[D, N,N-di-n-propyl-2-[3-methoxy-2-(2-phenylethoxy)phenyl]ethylamine hydrochloride]", "values": [{"measurement": "Percentage of decrease in cocaine intake (%)", "setting": "[1]; [4]", "result": 49.3, "unit": "%"}, {"measurement": "ED50", "setting": "[2]", "result": 0.27, "unit": "mg/kg"}]}, {"smiles": "CCCN(CCC)CCCc1ccc(OC)c(OCCc2ccccc2)c1.Cl", "note": "[C, N,N-di-n-propyl-3-[4-methoxy-3-(2-phenylethoxy)phenyl]propylamine hydrochloride]", "values": [{"measurement": "Percentage of decrease in cocaine intake (%)", "setting": "[1]; [4]", "result": 77.1, "unit": "%"}, {"measurement": "ED50", "setting": "[2]", "result": 0.22, "unit": "mg/kg"}]}, {"smiles": "CCCN(CCC)CCc1ccc(OC)c(OCCc2ccccc2)c1.Cl", "note": "[Compound B, N,N-di-n-propyl-2-[4-methoxy-3-(2-phenylethoxy)phenyl]ethylamine hydrochloride]", "values": [{"measurement": "LD50 at 14 days", "setting": "[3]; female rats", "result": "312 to 406", "unit": "mg/kg"}, {"measurement": "LD50 at 14 days", "setting": "[3]; male rats", "result": "685 to 891", "unit": "mg/kg"}, {"measurement": "Percentage of decrease in cocaine intake (%)", "setting": "[1]; [4]", "result": 89.3, "unit": "%"}, {"measurement": "ED50", "setting": "[2]", "result": 0.12, "unit": "mg/kg"}, {"measurement": "ethanol dependence", "setting": "alcohol dependence; 0.1 or 1 mg/kg, result in words", "result": "suppressed the ethanol dependence in a dose-dependent manner"}, {"measurement": "Desire-arising effect for ethanol treatment compartment", "setting": "alcohol dependence; Ethanol (0.5 g/kg) + B 0.1 mg/kg", "result": "104 ± 41"}, {"measurement": "Desire-arising effect for ethanol treatment compartment", "setting": "alcohol dependence; Ethanol (0.5 g/kg) + B 1 mg/kg", "result": "11 ± 32"}, {"measurement": "Desire-arising effect for ethanol treatment compartment", "setting": "alcohol dependence; Ethanol (1 g/kg) + B 0.1 mg/kg", "result": "101 ± 47"}, {"measurement": "Desire-arising effect for ethanol treatment compartment", "setting": "alcohol dependence; Ethanol (1 g/kg) + B 1 mg/kg", "result": "9 ± 12"}]}, {"smiles": "CCCN(CCC)CCc1ccc(OC)c(OCCc2ccccc2)c1", "note": "[N,N-dipropyl-2-[4-methoxy-3-(2-phenylethoxy)phenyl]ethylamine]", "values": [{"measurement": "affinity for 5-HT1A", "setting": "5-HT1A", "result": "low affinity"}, {"measurement": "affinity for D2", "setting": "D2", "result": "low affinity"}, {"measurement": "affinity for D1", "setting": "D1", "result": "low affinity"}, {"measurement": "affinity to sigma receptor", "setting": "sigma receptor", "result": "high affinity"}, {"measurement": "affinity for 5-HT2", "setting": "5-HT2", "result": "low affinity"}]}, {"smiles": "C[C@@H]1CN(CCCn2c3ccccc3c3ccccc32)C[C@H](C)N1", "note": "[Rimcazole, reference compound]", "values": [{"measurement": "Percentage of decrease in cocaine intake (%)", "setting": "[1]; orally administered in a dose of 10 mg/kg", "result": 28.0, "unit": "%"}, {"measurement": "ED50", "setting": "[2]", "result": 28, "unit": "mg/kg"}]}]}
